“And” between values parts separate entries of the source, which are not always exact repeats. Equal values may be shown once. Read-outs that look alike come from different tables or passages of the source.
Key:
SARS-CoV-2 [1] = format: cell-based; settings: HEK293T cells stably expressing ACE2
HEK293T-ACE2 cells = settings: up to 10 mM compound
GABAA receptors = settings: cited from earlier work
[2] = target: benzodiazepine binding site of human GABAA receptors containing either an α1, α2, α3 or α5 subunit; settings: read-out: affinity; cited from earlier work
SARS-CoV-2 [3] = assay: microbe, parasite or virus in culture; format: cell-based; settings: for HIT: overall, 1 or 5 uM; for % Infection (1 uM) / % Infection (5 uM): single replicate of triplicate; for Normalized Infection (1 uM) / log2FC Infection (1 uM) / Normalized Infection (5 uM) / log2FC Infection (5 uM): single replicate, relative to negative control DMSO
[4] = for Average Cell Number (1 uM) / Cell Number (1 uM) / Normalized Cell Number (1 uM): compound at 1 uM; for Average Cell Number (1 uM) / Average Cell Number (5 uM): average of normalized cell number, n=3, relative to DMSO; for Cell Number (1 uM) / Normalized Cell Number (1 uM) / Cell Number (5 uM) / Normalized Cell Number (5 uM): single replicate; for Cell Number (1 uM) / Cell Number (5 uM): raw cell count; for Normalized Cell Number (1 uM) / Normalized Cell Number (5 uM): relative to negative control DMSO; for Average Cell Number (5 uM) / Cell Number (5 uM) / Normalized Cell Number (5 uM): compound at 5 uM
[5] = 1 uM, average log2FC infection (n=3) relative to DMSO
[6] = 5 uM, average log2FC infection (n=3) relative to DMSO

CN[C@@H](C)C(=O)N[C@H](C(=O)N1CCC[C@H]1C(=O)N[C@H]1c2ccccc2C[C@H]1OCC#CC#CCO[C@@H]1Cc2ccccc2[C@@H]1NC(=O)[C@@H]1CCCN1C(=O)[C@@H](NC(=O)[C@H](C)NC)C1CCCCC1)C1CCCCC1 [AZD5582]
antiviral activity (SARS-CoV-2 [1]): excellent activity | cytotoxicity (HEK293T-ACE2 cells): no observable cytotoxicity

CN[C@@H](C)C(=O)N[C@H]1CCS[C@H]2CC(C)(C)[C@@H](C(=O)N[C@H]3c4ccccc4C[C@H]3OCC#CC#CCO[C@@H]3Cc4ccccc4[C@@H]3NC(=O)[C@H]3N4C(=O)[C@@H](NC(=O)[C@H](C)NC)CCS[C@H]4CC3(C)C)N2C1=O [Ciapavir]
antiviral activity (SARS-CoV-2 [1]): excellent activity | cytotoxicity (HEK293T-ACE2 cells): no observable cytotoxicity

CC(C)CCC(=O)CC1c2ccccc2C(=O)N1c1ccc2ccc(Cl)nc2n1 (centres unmarked) [Pagoclone]
efficacy at α1-, α2- and α5-containing GABAA receptors (GABAA receptors; α1-, α2- and α5-containing): partial agonist | efficacy at receptors containing an α3 subunit (GABAA receptors; α3 subunit): full agonist | Ki [2]: 0.7 to 9.1 nM

FC(F)(F)c1cccc(C2=CCN(CCc3ccc4ccccc4c3)CC2)c1 [Xaliproden, xaliproden]
HIT (2 Std, 1 uM) (SARS-CoV-2 [3]; 1 uM): HIT | Average Infection (1 uM) (SARS-CoV-2 [3]; [5]): −0.6769 | Average Infection (5 uM) (SARS-CoV-2 [3]; [6]): −0.143 | HIT (SARS-CoV-2 [3]): Yes | Toxic (1 uM) [4]: 0 (non-toxic (Normalized Cell number>0.65) | Toxic (5 uM) [4]: 0 (non-toxic (Normalized Cell number>0.65) | Average Cell Number (1 uM) [4]: 0.7188 | Cell Number (1 uM) [4]: 4440 and 4549 and 3647 | Normalized Cell Number (1 uM) [4]: 0.7577 and 0.7763 and 0.6224 | Average Cell Number (5 uM) [4]: 0.9135 | Cell Number (5 uM) [4]: 5577 and 5737 and 4927 | Normalized Cell Number (5 uM) [4]: 0.9411 and 0.9681 and 0.8314

cefonicid
Average Infection (1 uM) (SARS-CoV-2 [3]): −0.4929 | Average Infection (5 uM) (SARS-CoV-2 [3]): 0.04523 | HIT (2 Std, 1 uM) (SARS-CoV-2 [3]; 1 uM): HIT | % Infection (1 uM) (SARS-CoV-2 [3]; 1 uM): 19.07% and 19.19% and 17.78% | Normalized Infection (1 uM) (SARS-CoV-2 [3]; 1 uM): 0.7259 and 0.7305 and 0.6768 | log2FC Infection (1 uM) (SARS-CoV-2 [3]; 1 uM): −0.4622 and −0.4531 and −0.5633 | % Infection (5 uM) (SARS-CoV-2 [3]; 5 uM): 16.97% and 13.67% and 17.29% | Normalized Infection (5 uM) (SARS-CoV-2 [3]; 5 uM): 1.102 and 0.8875 and 1.123 | log2FC Infection (5 uM) (SARS-CoV-2 [3]; 5 uM): 0.1402 and −0.1722 and 0.1676 | HIT (SARS-CoV-2 [3]): Yes | Toxic (1 uM) [4]: 0 (non-toxic (Normalized Cell number>0.65) | Toxic (5 uM) [4]: 0 (non-toxic (Normalized Cell number>0.65) | Average Cell Number (1 uM) [4]: 0.9122 | Cell Number (1 uM) [4]: 5339 and 5337 and 5361 | Normalized Cell Number (1 uM) [4]: 0.9111 and 0.9108 and 0.9148 | Average Cell Number (5 uM) [4]: 0.9876 | Cell Number (5 uM) [4]: 5781 (2×) and 5996 | Normalized Cell Number (5 uM) [4]: 0.9755 (2×) and 1.012

lonafarnib
Average Infection (1 uM) (SARS-CoV-2 [3]): −0.6667 | Average Infection (5 uM) (SARS-CoV-2 [3]): −1.3 | HIT (2 Std, 1 uM) (SARS-CoV-2 [3]; 1 uM): HIT | % Infection (1 uM) (SARS-CoV-2 [3]; 1 uM): 17.44% and 15.37% | Normalized Infection (1 uM) (SARS-CoV-2 [3]; 1 uM): 0.6641 and 0.5853 | log2FC Infection (1 uM) (SARS-CoV-2 [3]; 1 uM): −0.5906 and −0.7727 | HIT (2 Stdv, 5 uM) (SARS-CoV-2 [3]; 5 uM): HIT | % Infection (5 uM) (SARS-CoV-2 [3]; 5 uM): 6.304% and 5.672% and 6.839% | Normalized Infection (5 uM) (SARS-CoV-2 [3]; 5 uM): 0.4094 and 0.3683 and 0.4442 | log2FC Infection (5 uM) (SARS-CoV-2 [3]; 5 uM): −1.288 and −1.441 and −1.171 | HIT (SARS-CoV-2 [3]): Yes | Toxic (1 uM) [4]: 0 (non-toxic (Normalized Cell number>0.65) | Average Cell Number (1 uM) [4]: 0.6561 | Cell Number (1 uM) [4]: 3801 and 4072 and 3662 | Normalized Cell Number (1 uM) [4]: 0.6486 and 0.6949 and 0.6249 | Average Cell Number (5 uM) [4]: 0.6416 | Cell Number (5 uM) [4]: 3696 and 3879 and 3831 | Normalized Cell Number (5 uM) [4]: 0.6546 and 0.6465

osanetant
HIT (2 Std, 1 uM) (SARS-CoV-2 [3]; 1 uM): HIT | Average Infection (1 uM) (SARS-CoV-2 [3]; [5]): −0.8388 | % Infection (1 uM) (SARS-CoV-2 [3]; 1 uM): 13.75% and 14.37% and 16.0359% | Normalized Infection (1 uM) (SARS-CoV-2 [3]; 1 uM): 0.5233 and 0.547 and 0.6105 | log2FC Infection (1 uM) (SARS-CoV-2 [3]; 1 uM): −0.9343 and −0.8703 and −0.7119 | HIT (2 Stdv, 5 uM) (SARS-CoV-2 [3]; 5 uM): HIT | Average Infection (5 uM) (SARS-CoV-2 [3]; [6]): −3.987 | % Infection (5 uM) (SARS-CoV-2 [3]; 5 uM): 0.9628% and 1.307% and 0.7276% | Normalized Infection (5 uM) (SARS-CoV-2 [3]; 5 uM): 0.06253 and 0.08489 and 0.04725 | log2FC Infection (5 uM) (SARS-CoV-2 [3]; 5 uM): −3.999 and −3.558 and −4.403 | HIT (SARS-CoV-2 [3]): Yes | Toxic (1 uM) [4]: 0 (non-toxic (Normalized Cell number>0.65) | Toxic (5 uM) [4]: 0 (non-toxic (Normalized Cell number>0.65) | Average Cell Number (1 uM) [4]: 0.6882 | Cell Number (1 uM) [4]: 4045 and 3932 and 4122 | Normalized Cell Number (1 uM) [4]: 0.6903 and 0.671 and 0.7034 | Average Cell Number (5 uM) [4]: 0.7783 | Cell Number (5 uM) [4]: 4466 and 4973 and 4398 | Normalized Cell Number (5 uM) [4]: 0.7536 and 0.8392 and 0.7421
